The nature of the series: release of the active compound from intramuscular suspensions. The following applies: oily suspensions, water-soluble form (hydrochlorides, lactates, mesilates and other salts), particularly with interfacially surface active materials.

In the case of `O=C(O)c1cn(C2CC2)c2cc(N3CCNCC3)c(F)cc2c1=O` [ciprofloxacin], the “release of the active compound” value is listed as “very rapidly”.

Values taken from US5023257A, “Intramuscular injection forms of gyrase inhibitors” (Bayer Aktiengesellschaft, priority 1988, dated 1991).
